One experiment concerns GSK3b protein. Briefly: GSK3b activation (pSer9/pTyr216 ratio) in primary hippocampal neurons isolated from Ts2Cje mice. The experiment is classed as cell-based, mouse. The note with it: 1, 5, 10 μM for 24 hours. The method, then: For Western blots, 20 μg of proteins from the hippocampus of mice belonging to the four experimental groups were separated by 4-15% SDS-PAGE CriterionTM […] (Bio-rad, Hercules, CAUSE). […] Therefore, the gel, once the image has been acquired, represents the total of the loaded proteins (Total Load), which will then be used to normalize the specific proteins to be examined. After electrophoresis and gel imaging, proteins are transferred via the semi-dry TransBlot Turbo apparatus (Bio-Rad Laboratories) onto nitrocellulose membranes (Bio-Rad, Hercules, CA, USA). Nitrocellulose membranes are blocked with 3% bovine serum albumin (BSA) in a solution of Tween 20-TBS and incubated overnight at 4° C. using specific primary antibodies: p([…])-GSK3B (1:1000, Santa Cruz, #sc-135653), p(S9)-GSK3β (1:1000, Cell Signaling, #5558S), GSK3β (1:1000 Abcam, #93926) and DYRK1A (1:1000, Cell Signaling, #8765S), MAPK44/42 (1:1000, Cell Signaling, #9102), p[…])-MAPK44/42 (1 1000, Cell Signaling, #9101), Akt (1:2000, Bio-Rad, # vma00253K), p(S473) Akt (1:1000, Cell Signaling, #4060S). After three washes with a T-TBS buffer solution, membranes were incubated for 1 hour at room temperature with the secondary antibodies. Secondary antibodies with peroxidase activity are anti-mouse or anti-rabbit (1:5000, Bio-rad, Hercules, CA, USA). […] Finally, the results obtained were analyzed using the ImageLab program (Bio-rad, Hercules, CA, USA). […] In order to isolate primary hippocampal neurons, hippocampi from Ts and euploid mice were mechanically dissociated in PBS (with Ca^2+ and […]) and centrifuged (3 minutes, 1100 rpm, 25° C.). Subsequently, the pellet was resuspended in 0.25% trypsin solution and centrifuged further for 3 minutes at 1100 rpm at Tamb. At this point, the cell extract was resuspended in MEM 1 culture medium (Minimum Essential Medium complemented with fetal bovine serum (FBS-1%), L-glutamine 200 mM (1%), glucose 25 mM (1%), gentamicin 0.1 mg/ml) and centrifuged for 10 minutes, 1100 rpm at 25° C. […]

A further experiment concerns gephyrin and GABAA-R. Briefly: Immunofluorescence of gephyrin and GABAA-R co-localization in hippocampus CA3 and CA1. Type of experiment: in vivo, mouse. To be noted: Ts2Cje mice, confocal microscopy.
In a further experiment the test system is DYRK1A protein. Briefly: DYRK1A protein levels in primary hippocampal neurons isolated from Ts2Cje mice. Type of experiment: cell-based, mouse. The note with it: 1, 5, 10 μM for 24 hours, vs untreated Ts2Cje. The method, then: For Western blots, 20 μg of proteins from the hippocampus of mice belonging to the four experimental groups were separated by 4-15% SDS-PAGE Criterion™ TGX (Tris-Glyicine eXtended) Stain-Free™ (Bio-rad, Hercules, CAUSE). This type of gel allows a rapid acquisition of the protein run in the ultraviolet (UV) by Chemidoc™ MP imaging systems (Bio-rad, Hercules, CA, USA). Therefore, the gel, once the image has been acquired, represents the total of the loaded proteins (Total Load), which will then be used to normalize the specific proteins to be examined. After electrophoresis and gel imaging, proteins are transferred via the semi-dry TransBlot Turbo apparatus (Bio-Rad Laboratories) onto nitrocellulose membranes (Bio-Rad, Hercules, CA, USA). Nitrocellulose membranes are blocked with 3% bovine serum albumin (BSA) in a solution of Tween 20-TBS and incubated overnight at 4° C. using specific primary antibodies: p(T216)-GSK3B (1:1000, Santa Cruz, #sc-135653), p(S9)-GSK3β (1:1000, Cell Signaling, #5558S), GSK3β (1:1000 Abcam, #93926) and DYRK1A (1:1000, Cell Signaling, #8765S), MAPK44/42 (1:1000, Cell Signaling, #9102), p(Thr202/Tyr204)-MAPK44/42 (1 1000, Cell Signaling, #9101), Akt (1:2000, Bio-Rad, # vma00253K), p(S473) Akt (1:1000, Cell Signaling, #4060S). After three washes with a T-TBS buffer solution, membranes were incubated for 1 hour at room temperature with the secondary antibodies. Secondary antibodies with peroxidase activity are anti-mouse or anti-rabbit (1:5000, Bio-rad, Hercules, CA, USA). Membranes were developed using Clarity Enhanced Chemiluminescence (ECL), a chemiluminescent substrate (Bio-rad, Hercules, CA, USA) and acquired with Chemidoc Mp (Bio-rad, Hercules, CA, USA). Finally, the results obtained were analyzed using the ImageLab program (Bio-rad, Hercules, CA, USA).
In order to isolate primary hippocampal neurons, hippocampi from Ts and euploid mice were mechanically dissociated in PBS (with Ca^2+ and Mg^2−) and centrifuged (3 minutes, 1100 rpm, 25° C.). […]

This is an account of results in patent US12636284B2, “Compositions for use in the prevention and/or treatment of intellectual disability and neurodegenerative diseases in a subject with down syndrome” (UNIVERSITA' DEGLI STUDI DI ROMA “LA SAPIENZA”, priority 2021, dated 2026).

Experimental for gephyrin and GABAA-R: Brains were placed in 4% paraformaldehyde for 24 hours. Brains were then fixed over the subsequent 48 hours in a 20% sucrose solution. Brain sections were then cut to a thickness of 15 μm using a cryostat (Leica System) and stored in an aqueous solution of PBS containing 0.02% NaN3 at 4° C. until use. Slices thus obtained were mounted on slides and were blocked and permeabilized by blocking solution (10% of normal goat serum and 0.2% Triton X-100 in TBS) for 2 hours.
The following day, the same slices were incubated with a mix of fluorescent secondary antibodies, to evaluate the co-localization of the two proteins, anti-mouse Alexa Fluor 488 nm for gephyrin and anti-rabbit Alexa Fluor 594 nm for GABA α2 (1:1500, Invitrogen, Carlsbad, California, CA, USA) for 2 hours at room temperature. The slices were then washed again and incubated with DAPI nuclear marker (1:10000, Invitrogen, Carlsbad, California, CA, USA). To subtract the non-specific background signal created by the secondary antibody, some sections were incubated only with the secondary antibody. Finally, the sample was sealed with a cover slip via fluorimount (Sigma-Aldrich, St Louis, MO, USA). The acquisition and analysis of brain sections was carried out using Leica TCS SP5× confocal microscopy and ImageJ analysis software.

For the compound `N[C@@H](CC(=O)N1CCn2c(nnc2C(F)(F)F)C1)Cc1cc(F)c(F)cc1F` [sitagliptin, (R)-4-oxo-4-[3-(trifluoromethyl)-5,6-dihydro[1,2,4]triazole[4,3-a]pyrazin-7(8H)-yl]-1-(2,4,5-trifluorophenyl)butan-2-amine], the “activity of the GSK3B protein in Ts2Cje neurons” value in the experiment on GSK3b protein is “significant increase”. Moreover, the “clusters of gephyrin and GABAA-R at the synaptic level” value in the experiment on gephyrin and GABAA-R was “reduction of the clusters of gephyrin and GABAA-R”. The “levels of the DYRK1A protein in Ts2Cje neurons” value in the experiment on DYRK1A protein is “significant reduction”.
